# Source: patent publication US11021488B2, “Hetero-substituted cyclic lactone analogues and uses thereof” (BioVentures, LLC, priority 2015, dated 2021)
# Legend:
# AML primary samples = test: Activity of SLs against AML primary samples
# MV4-11 cells = test: Cytotoxic activity of SLs against MV4-11 cells (flow cytometry, YO-PRO-1 / 7-AAD); format: cell-based; settings: MV4-11 AML cell line, cell viability at 36 hours, triplicate
# Experimental: Following this promising data, additional SLs were studied. This included glaucolide A (FIG. 5A), glaucolide E (FIG. 5B) and calaxin (FIG. 4A). Further, an additional compound Bahia I (FIG. 11) was synthesized (described below) and evaluated. The cytotoxicity of these compounds was determined using the AML cell line, MV4-11. MV4-11 cells were treated with the compounds at varying concentrations in triplicate. Cells were then stained with YO-PRO-1 and 7-aminoactinomycin D (7-AAD). YO-PRO-1 stains apoptotic cells and 7-ADD detects cell permeability. At 36 hours cell viability was measured via flow cytometry.
# MOLM-13_BLIV cells = test: In vivo efficacy in NSG mice injected with MOLM-13_BLIV leukemia cells (luciferin imaging); settings: 2.5 mg/kg in 20% DMSO i.p. every other day, imaged Day 23 and Day 31, vs vehicle
# Experimental: To evaluate the efficacy of bahia II (BAH) in vivo, 6-8 week old NSG mice were injected i.v. via tail vein with 2.5×10^5 MOLM-13_BLIV cells. Two weeks after injection mice were injected with 3 mg of luciferin to visualize the leukemia cells using the IVIS Spectrum Imager. This was denoted time 0. Mice were randomized into 2 groups: (1) Vehicle (DMSO 20%) and (2) bahia II (BAH) (2.5 mg/kg in 20% DMSO). Mice were treated with vehicle or BAH every other day. After 3 doses, administered by i.p. injection, mice were imaged to evaluate tumor progression (Day 23). One week after the first 3 doses, the mice were treated and evaluated again in the same manner (Day 31).
# Solubility in water = format: physicochemical
# [1] = test system: normal peripheral blood mononuclear cells (PBMNCs); test: Toxicity against normal peripheral blood mononuclear cells compared with leukemic cells; format: cell-based; settings: PBMNCs compared with leukemic cells (FIG. 14)
# Description: The cytotoxicity of Bahia II against leukemic cells was compared with its activity against normal peripheral blood mononuclear cells (PBMNCs) (FIG. 14).
Compound,Average LD50 (AML primary samples) [µM],LD50 (MV4-11 cells) [µM],other results
C=C1C(=O)O[C@@H]2/C=C(\C)CC/C=C(\C)C[C@@H](OC(=O)/C(=C/CO)CO)[C@@H]12 [Eupatoriopicrin],5.65,1.09,
"C=C1C(=O)O[C@@H]2[C@H]3C(C)=CC(=O)C3=C(C)CC[C@@H]12 [DHL, Dehydroleucodine, reference compound]",7.06,3.19,
Bahia I,,2.80,
C=C(C)C(=O)O[C@@H]1C[C@@]2(C)OC(=CC2=O)/C(C)=C\[C@H]2OC(=O)C(=C)[C@@H]21 [Calaxin],,0.0544,
C=C1C(=O)OC2C1C(OC(=O)/C(=C/CO)CO)CC1(CO1)C1CC=C(C)C21 (centres unmarked) [Bahia II],4.64,1.21,radiance emitted from tumor cells (MOLM-13_BLIV cells): significant reduction in radiance; solubility in water (Solubility in water; mass concentration): 1750 ± 60 µg/mL; solubility in water (Solubility in water; molar): 465 µM; toxicity against normal cells versus leukemia cells [1]: much lower toxicity against normal cells
Glaucolide A,,1.82,
Glaucolide E,,1.12,
